Data: ChEMBL document CHEMBL4706660, “Structure-Activity Relationship and Biological Investigation of SR18292 (16), a Suppressor of Glucagon-Induced Glucose Production” (J Med Chem, 2021)
Calls of active or inactive are those of the source. The calls are words filed in the database; no cut-off is given here.

Key:
[1] = Inhibition of NE-induced lipolysis in adipocytes (unknown origin) assessed as reduction in glycerol release at 1 uM pre-incubated for 30 mins before NE stimulation for 90 mins by glycerol reagent based assay relative to control; format: functional, Adipocyte; conditions: 2 h
[2] = Inhibition of glucagon-induced glucose secretion in C57BL/6 mouse primary hepatocytes at 1 uM; format: functional; conditions: C57BL/6, Hepatocyte
Mus musculus [3] = experiment: In-vivo antagonist activity at beta-adrenergic receptor in fasted ob/ob mouse assessed as increase in accumulation of liver glycogen at 25 mg/kg; format: functional, organism-based
Mus musculus [4] = experiment: In-vivo antagonist activity at beta-adrenergic receptor in fasted ob/ob mouse assessed as inhibition of hormone-sensitive lipase phosphorylation in brown adipose tissue at 25 mg/kg
Adipocyte = experiment: Inhibition of NE-induced lipolysis in adipocytes (unknown origin) assessed as reduction in glycerol release at 1 to 10000 nM pre-incubated for 30 mins before NE stimulation for 90 mins by glycerol reagent based assay relative to control; format: functional, cell-based; conditions: dose 1-10000 nM, time 120.0 min
Mus musculus [5] = experiment: Suppression of fasting blood glucose in overnight fasted ob/ob mouse 25 mg/kg, ip dosed 3 times and measured 3 hrs after last dose; format: functional, organism-based
Mus musculus [6] = experiment: In-vivo antagonist activity at beta-adrenergic receptor in fasted and HFD fed mouse assessed as increase in accumulation of liver glycogen at 50 mg/kg; format: functional, organism-based
[7] = molecular target: T1, 5-hydroxytryptamine receptor 1A (Homo sapiens, UniProt P08908); experiment: Binding affinity to 5HT1A receptor (unknown origin)
T1 sequence (P08908 whole entry): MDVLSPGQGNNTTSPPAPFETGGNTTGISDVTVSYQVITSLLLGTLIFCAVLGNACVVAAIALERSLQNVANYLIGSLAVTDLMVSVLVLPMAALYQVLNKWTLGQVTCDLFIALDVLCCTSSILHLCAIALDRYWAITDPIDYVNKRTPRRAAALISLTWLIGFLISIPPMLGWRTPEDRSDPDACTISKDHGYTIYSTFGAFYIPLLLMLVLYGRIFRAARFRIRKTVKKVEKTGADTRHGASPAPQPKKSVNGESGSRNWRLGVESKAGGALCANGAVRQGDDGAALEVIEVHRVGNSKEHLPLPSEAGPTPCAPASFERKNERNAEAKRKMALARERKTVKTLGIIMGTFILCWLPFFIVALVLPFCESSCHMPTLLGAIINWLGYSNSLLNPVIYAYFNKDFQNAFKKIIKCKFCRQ

[8] = molecular target: Beta-2 adrenergic receptor (Homo sapiens, UniProt P07550); experiment: Binding affinity to beta2 adrenoceptor (unknown origin)
Beta-2 adrenergic receptor, sequence (P07550 whole entry): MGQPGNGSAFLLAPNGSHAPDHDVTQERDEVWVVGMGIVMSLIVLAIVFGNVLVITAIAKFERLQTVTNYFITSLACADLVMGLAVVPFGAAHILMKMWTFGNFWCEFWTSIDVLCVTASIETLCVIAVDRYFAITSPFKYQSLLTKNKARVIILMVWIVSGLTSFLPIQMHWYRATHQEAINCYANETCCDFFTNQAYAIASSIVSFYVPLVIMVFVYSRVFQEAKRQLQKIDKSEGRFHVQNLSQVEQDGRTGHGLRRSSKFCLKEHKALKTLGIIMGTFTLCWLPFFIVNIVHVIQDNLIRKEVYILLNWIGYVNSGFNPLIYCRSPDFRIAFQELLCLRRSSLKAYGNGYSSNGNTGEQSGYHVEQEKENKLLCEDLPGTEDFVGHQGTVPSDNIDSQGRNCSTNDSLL

Mus musculus [9] = experiment: In-vivo antagonist activity at beta-adrenergic receptor in fasted and HFD fed mouse assessed as inhibition of hormone-sensitive lipase phosphorylation in epididymal white adipose tissue at 50 mg/kg; format: functional, organism-based

SMILES	inhibition ([1]; read-out: INH)	inhibition at 1 µM [2]	also measured
CC(C)NCC(O)COc1cccc2ccccc12 (stereo unspecified) [PROPRANOLOL]	–	–	inhibition [1]: 92.4%
Cc1ccc(CN(CC(O)COc2ccccc2)C(C)(C)C)cc1 (stereo unspecified)	21.7%	32.3%	–
CC(C)(C)N(Cc1ccc(C#N)cc1)CC(O)COc1cccc2[nH]ccc12 (stereo unspecified)	53.7%	49.3%	–
Cc1ccc(CN(CC(O)COc2ccncc2)C(C)(C)C)cc1 (stereo unspecified)	31.5%	41.4%	–
Cc1cccc(CN(CC(O)COc2cccc3[nH]ccc23)C(C)(C)C)c1 (stereo unspecified)	40.4%	62.6%	–
COc1ccc(CN(CC(O)COc2cccc3[nH]ccc23)C(C)(C)C)cc1 (stereo unspecified)	58.3%	30.1%	–
COC(COc1cccc2[nH]ccc12)CN(CC1CCCC1)C(C)(C)C (stereo unspecified)	1%	66.4%	–
CC(C)(C)NCC(O)COc1cccc2[nH]ccc12 (stereo unspecified)	73.2%	53%	–
Cc1ccc(CN(CC(O)COc2cccc(C)c2)C(C)(C)C)cc1 (stereo unspecified)	13.1%	31.5%	–
Cc1ccccc1CN(CC(O)COc1cccc2[nH]ccc12)C(C)(C)C (stereo unspecified)	35.6%	46%	–
CN(C)c1ccc(CN(CC(O)COc2cccc3[nH]ccc23)C(C)(C)C)cc1 (stereo unspecified)	65.2%	35.3%	–
Cc1ccc(CN(CC(O)COc2cccc3c2ccn3C)C(C)(C)C)cc1 (stereo unspecified)	36.7%	47.7%	–
CC(C)(C)N(CC(O)COc1cccc2[nH]ccc12)CC1CCCC1 (stereo unspecified)	51.3%	48.5%	–
Cc1ccc(CN(CC(O)CNc2cccc3cc[nH]c23)C(C)(C)C)cc1 (stereo unspecified)	13.2%	35.1%	–
Cc1ccc(CN(CCCOc2cccc3[nH]ccc23)C(C)(C)C)cc1	9.91%	28.3%	–
Cc1ccc(CN(CC(O)COc2ccc3[nH]ccc3c2)C(C)(C)C)cc1 (stereo unspecified)	48.5%	50.7%	–
Cc1ccc(CN(CC(O)CNc2ccc3[nH]ccc3c2)C(C)(C)C)cc1 (stereo unspecified)	2.24%	28.2%	–
COC(COc1cccc2c1ccn2C)CN(Cc1ccc(C)cc1)C(C)(C)C (stereo unspecified)	3.22%	56.8%	–
Cc1ccc(CNCC(O)COc2cccc3[nH]ccc23)cc1 (stereo unspecified)	40.6%	34.5%	–
Cc1ccc(CN(CC(O)COc2cccc3ccccc23)C(C)(C)C)cc1 (stereo unspecified)	10.4%	-2.73%	–
CC(C)(C)c1ccc(CN(CC(O)COc2cccc3[nH]ccc23)C(C)(C)C)cc1 (stereo unspecified)	11.3%	47.3%	Activity (Mus musculus [3]): inactive; Activity (Mus musculus [4]): inactive; inhibition (Adipocyte): inactive; Activity (Mus musculus [5]): Active
Cc1ccc(CN(CC(O)COc2cccc3[nH]ccc23)C(C)C)cc1 (stereo unspecified)	51.6%	59.5%	–
CC(=O)Nc1cccc(OCC(O)CN(Cc2ccc(C)cc2)C(C)(C)C)c1 (stereo unspecified)	12.3%	35.9%	–
COC(COc1cccc2[nH]ccc12)CN(Cc1ccc(C)cc1)C(C)(C)C (stereo unspecified)	-8.5%	135%	–
Cc1ccc(CN(CC(O)COc2cccc3[nH]ccc23)C2CC2)cc1 (stereo unspecified)	11.6%	37.8%	–
Cc1ccc(CN(CC(O)COc2cccc3[nH]ccc23)C(C)(C)C)cc1 (stereo unspecified)	25.8%	57.7%	Activity (Mus musculus [3]): inactive; Activity (Mus musculus [4]): inactive; Activity (Mus musculus [6]): inactive; Ki [7]: 2.1 µM; Activity (Mus musculus [5]): Active; Ki [8]: 1.3 µM; Activity (Mus musculus [9]): inactive
COC(COc1cccc2[nH]ccc12)CN(Cc1ccccc1C)C(C)(C)C (stereo unspecified)	14.6%	22.7%	–
CC(C)(C)N(Cc1ccc(F)cc1)CC(O)COc1cccc2[nH]ccc12 (stereo unspecified)	55.3%	52.2%	–
